Values of other authors in paper PMC11585628 (Nature Communications, 2024).

Test system: SARS-CoV-2
Details: read-out: EC50 for antiviral effects

Substance: XR8-24
- EC50: 1200 nM
